Here are results for 53 compounds from patent US8017611B2, “Pyridine and pyrazine derivatives -083” (AstraZeneca AB, priority 2007, dated 2011).

SMILES strings stand for the structures.

In the first assay the target is T1, recombinant Axl tyrosine kinase (Homo sapiens, UniProt P30530).
T1 construct: encompassing amino acids 473 to 894 of Axl; GST (N); made in house; host or cells: SF126 insect cells
T1 sequence (P30530 473-894): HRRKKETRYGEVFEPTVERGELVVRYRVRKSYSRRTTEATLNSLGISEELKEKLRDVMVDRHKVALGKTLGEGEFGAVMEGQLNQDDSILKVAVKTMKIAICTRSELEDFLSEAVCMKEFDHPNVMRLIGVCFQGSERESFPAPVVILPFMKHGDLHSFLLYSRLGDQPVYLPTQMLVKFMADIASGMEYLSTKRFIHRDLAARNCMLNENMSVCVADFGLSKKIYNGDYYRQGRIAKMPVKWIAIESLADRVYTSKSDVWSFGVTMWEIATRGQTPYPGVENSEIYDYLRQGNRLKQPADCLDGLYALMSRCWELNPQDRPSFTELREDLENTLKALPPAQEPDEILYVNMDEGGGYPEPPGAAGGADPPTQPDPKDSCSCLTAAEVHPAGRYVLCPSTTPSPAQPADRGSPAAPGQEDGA
Put plainly: In vitro Axl kinase assay (AlphaScreen), Test (a). Format: biochemical. The conditions noted are these: test compound at 1 μM; first value quoted. On the technique in general: In Alpha technology, singlet oxygen from a donor bead excites a nearby acceptor bead.
On to `Nc1ncc(-c2ccc(C(=O)N3CCN(Cc4ccncc4)CC3)cc2)cc1-c1nc2cccnc2o1` [Example 45A.62], for which the “% Axl tyrosine kinase inhibition at 1 μM concentration” value (from here on “% Axl tyrosine kinase inhibition”) came to 97.3%.

As to `Nc1ncc(-c2ccc(C(=O)N3CCC(N4CCCC4)CC3)cc2)cc1-c1nc2cccnc2o1` [Example 45A.63], the “% Axl tyrosine kinase inhibition” value is reported as 99.1%.

As for `Nc1ncc(-c2ccc(C(=O)N3CCC(N4CCOCC4)CC3)cc2)cc1-c1nc2cccnc2o1` [Example 45A.64], the “% Axl tyrosine kinase inhibition” value turned out to be 98.6%.

Regarding `CN1CCCN(C(=O)c2ccc(-c3cnc(N)c(-c4nc5cccnc5o4)c3)cc2)CC1` [Example 45A.65], the “% Axl tyrosine kinase inhibition” value worked out at 98.3%.

On to `Nc1ncc(-c2ccc(C(=O)N3CCC[C@H]3CN3CCCC3)cc2)cc1-c1nc2cccnc2o1` [Example 45A.66], for which the “% Axl tyrosine kinase inhibition” value worked out at 99.9%.

Turning to `CN(C)C(=O)CN1CCN(C(=O)c2ccc(-c3cnc(N)c(-c4nc5cccnc5o4)c3)cc2)CC1` [Example 45A.67], the “% Axl tyrosine kinase inhibition” value amounted to 96.8%.

As for `Nc1ncc(-c2ccc(C(=O)N3CCN(CCN4CCCC4)CC3)cc2)cc1-c1nc2cccnc2o1` [Example 45A.68], the “% Axl tyrosine kinase inhibition” value turned out to be 91.3%.

For `CN1CCC(NC(=O)c2ccc(-c3cnc(N)c(-c4nc5cccnc5o4)c3)cc2)CC1` [Example 45A.69], the “% Axl tyrosine kinase inhibition” value is 96.7%.

As to `CN(CCN1CCCC1)C(=O)c1ccc(-c2cnc(N)c(-c3nc4cccnc4o3)c2)cc1` [Example 45A.70], the “% Axl tyrosine kinase inhibition” value is given as 98.8%.

Regarding `NC(=O)CCN1CCN(C(=O)c2ccc(-c3cnc(N)c(-c4nc5cccnc5o4)c3)cc2)CC1` [Example 45A.71], the “% Axl tyrosine kinase inhibition” value was 93.7%.

Consider `CCN1CCCC1CNC(=O)c1ccc(-c2cnc(N)c(-c3nc4cccnc4o3)c2)cc1` (centres unmarked) [Example 45A.72], for which the “% Axl tyrosine kinase inhibition” value turned out to be 99.6%.

Take `CN1CCN(CCNC(=O)c2ccc(-c3cnc(N)c(-c4nc5cccnc5o4)c3)cc2)CC1` [Example 45A.73]: the “% Axl tyrosine kinase inhibition” value is 96.0%.

Turning to `Nc1ncc(-c2ccc(C(=O)N3CCN4CCCC4C3)cc2)cc1-c1nc2cccnc2o1` (centres unmarked) [Example 45A.74], the “% Axl tyrosine kinase inhibition” value was 99.9%.

As to `CN(C)C(=O)[C@@H]1CCCN1C(=O)c1ccc(-c2cnc(N)c(-c3nc4cccnc4o3)c2)cc1` [Example 45A.75], the “% Axl tyrosine kinase inhibition” value is given as 91.6%.

Consider `CN(C)[C@@H]1CCN(C(=O)c2ccc(-c3cnc(N)c(-c4nc5cccnc5o4)c3)cc2)C1` [Example 45A.76], for which the “% Axl tyrosine kinase inhibition” value turned out to be 96.7%.

`CN(C)[C@H]1CCN(C(=O)c2ccc(-c3cnc(N)c(-c4nc5cccnc5o4)c3)cc2)C1` [Example 45A.77]: the “% Axl tyrosine kinase inhibition” value came out at 96.1%.

`NCC1CCN(C(=O)c2ccc(-c3cnc(N)c(-c4nc5cccnc5o4)c3)cc2)CC1` [Example 45A.78]: the “% Axl tyrosine kinase inhibition” value stood at 97.7%.

For `Nc1ncc(-c2ccc(C(=O)N3CCC(N)C3)cc2)cc1-c1nc2cccnc2o1` (centres unmarked) [Example 45A.79], the “% Axl tyrosine kinase inhibition” value is on record as 99.0%.

Consider `CNC1CCN(C(=O)c2ccc(-c3cnc(N)c(-c4nc5cccnc5o4)c3)cc2)C1` (centres unmarked) [Example 45A.80], for which the “% Axl tyrosine kinase inhibition” value is reported as 99.7%.

`CNCCCNC(=O)c1ccc(-c2cnc(N)c(-c3nc4cccnc4o3)c2)cc1` [Example 45A.81]: the “% Axl tyrosine kinase inhibition” value is recorded as 99.6%.

On to `Nc1ncc(-c2ccc(C(=O)N3CCCNCC3)cc2)cc1-c1nc2cccnc2o1` [Example 45A.82], for which the “% Axl tyrosine kinase inhibition” value came to 98.4%.

Consider `Nc1ncc(-c2ccc(C(=O)NCCN3CCNCC3)cc2)cc1-c1nc2cccnc2o1` [Example 45A.83], for which the “% Axl tyrosine kinase inhibition” value turned out to be 98.9%.

As for `Nc1ncc(-c2ccc(C(=O)NC3CCCNC3)cc2)cc1-c1nc2cccnc2o1` (centres unmarked) [Example 45A.84], the “% Axl tyrosine kinase inhibition” value is listed as 99.1%.

As for `CNCCN(C)C(=O)c1ccc(-c2cnc(N)c(-c3nc4cccnc4o3)c2)cc1` [Example 45A.85], the “% Axl tyrosine kinase inhibition” value worked out at 99.8%.

In the case of `Nc1ncc(-c2ccc(C(=O)N3CCC(C4CCNCC4)CC3)cc2)cc1-c1nc2cccnc2o1` [Example 45A.86], the “% Axl tyrosine kinase inhibition” value was found to be 95.8%.

Take `Nc1ncc(-c2ccc(C(=O)N3CCC4(CCCNC4)CC3)cc2)cc1-c1nc2cccnc2o1` [Example 45A.87]: the “% Axl tyrosine kinase inhibition” value is 77.4%.

Consider `Nc1ncc(-c2ccc(C(=O)N3CCC[C@H](N)C3)cc2)cc1-c1nc2cccnc2o1` [Example 45A.88], for which the “% Axl tyrosine kinase inhibition” value is recorded as 99.8%.

For `Nc1ncc(-c2ccc(C(=O)N3CCC4(CCNC4)CC3)cc2)cc1-c1nc2cccnc2o1` [Example 45A.89], the “% Axl tyrosine kinase inhibition” value is on record as 91.7%.

As for `Nc1ncc(-c2ccc(C(=O)NC[C@@H]3CCCN3)cc2)cc1-c1nc2cccnc2o1` [Example 45A.90], the “% Axl tyrosine kinase inhibition” value is recorded as 98.9%.

In the case of `Nc1ncc(-c2ccc(C(=O)N3CCCC4(CCNCC4)C3)cc2)cc1-c1nc2cccnc2o1` [Example 45A.91], the “% Axl tyrosine kinase inhibition” value stood at 96.3%.

`NCC[C@H]1CCCN(C(=O)c2ccc(-c3cnc(N)c(-c4nc5cccnc5o4)c3)cc2)C1` [Example 45A.92]: the “% Axl tyrosine kinase inhibition” value is 99.7%.

As for `Nc1ncc(-c2ccc(C(=O)NC[C@H]3CCCNC3)cc2)cc1-c1nc2cccnc2o1` [Example 45A.93], the “% Axl tyrosine kinase inhibition” value is reported as 99.3%.

As to `Nc1ncc(-c2ccc(C(=O)N3CC4CNCC4C3)cc2)cc1-c1nc2cccnc2o1` (centres unmarked) [Example 45A.94], the “% Axl tyrosine kinase inhibition” value was 98.9%.

Regarding `Nc1ncc(-c2ccc(C(=O)N3CCCC(N)CC3)cc2)cc1-c1nc2cccnc2o1` (centres unmarked) [Example 45A.95], the “% Axl tyrosine kinase inhibition” value came to 99.5%.

Regarding `CN(C(=O)c1ccc(-c2cnc(N)c(-c3nc4cccnc4o3)c2)cc1)C1CCNCC1` [Example 45A.96], the “% Axl tyrosine kinase inhibition” value is reported as 99.1%.

For `Nc1ncc(-c2ccc(C(=O)N3CCC(CN4CCNCC4)CC3)cc2)cc1-c1nc2cccnc2o1` [Example 45A.98], the “% Axl tyrosine kinase inhibition” value turned out to be 97.6%.

Consider `CNC1CCC(NC(=O)c2ccc(-c3cnc(N)c(-c4nc5cccnc5o4)c3)cc2)CC1` (centres unmarked) [Example 45A.99], for which the “% Axl tyrosine kinase inhibition” value amounted to 95.9%.

Turning to `Nc1ncc(-c2ccc(C(=O)N3CCC4(CCNCC4)CC3)cc2)cc1-c1nc2cccnc2o1` [Example 45A.100], the “% Axl tyrosine kinase inhibition” value worked out at 95.3%.

Turning to `Nc1ncc(-c2ccc(C(=O)NCCCN3CCNCC3)cc2)cc1-c1nc2cccnc2o1` [Example 45A.101], the “% Axl tyrosine kinase inhibition” value is 99.1%.

For `Nc1ncc(-c2ccc(C(=O)NC3CCNCC3)cc2)cc1-c1nc2cccnc2o1` [Example 45A.103], the “% Axl tyrosine kinase inhibition” value was determined as 97.3%.

On to `Nc1ncc(-c2ccc(C(=O)NCC3CCCCN3)cc2)cc1-c1nc2cccnc2o1` (centres unmarked) [Example 45A.104], for which the “% Axl tyrosine kinase inhibition” value amounted to 99.8%.

`Nc1ncc(-c2ccc(C(=O)N3CC(N)C3)cc2)cc1-c1nc2cccnc2o1` [Example 45A.105]: the “% Axl tyrosine kinase inhibition” value is 98.4%.

Consider `Nc1ncc(-c2ccc(C(=O)NC3CCNC3)cc2)cc1-c1nc2cccnc2o1` (centres unmarked) [Example 45A.106], for which the “% Axl tyrosine kinase inhibition” value is recorded as 98.4%.

As for `Nc1ncc(-c2ccc(C(=O)N3CCC(N)CC3)cc2)cc1-c1nc2cccnc2o1` [Example 45A.107], the “% Axl tyrosine kinase inhibition” value worked out at 95.0%.

As for `CN(C)CCN(C)C(=O)c1ccc(-c2cnc(N)c(-c3nc4ncccc4o3)c2)cc1` [Example 45B.1], the “% Axl tyrosine kinase inhibition” value is recorded as 98.1%.

For `CN1CCN(C(=O)c2ccc(-c3cnc(N)c(-c4nc5ncccc5o4)c3)cc2)CC1` [Example 45B.2], the “% Axl tyrosine kinase inhibition” value came out at 96.1%.

As for `Nc1ncc(-c2ccc(C(=O)NCCN3CCOCC3)cc2)cc1-c1nc2ncccc2o1` [Example 45B.3], the “% Axl tyrosine kinase inhibition” value is on record as 97.7%.

Take `Nc1ncc(-c2ccc(C(=O)N3CCN(Cc4ccccn4)CC3)cc2)cc1-c1nc2ncccc2o1` [Example 45B.4]: the “% Axl tyrosine kinase inhibition” value is on record as 99.6%.

For `Nc1ncc(-c2ccc(C(=O)N3CCC(N4CCCC4)CC3)cc2)cc1-c1nc2ncccc2o1` [Example 45B.5], the “% Axl tyrosine kinase inhibition” value amounted to 99.9%.

Turning to `CN(C)C(=O)CN1CCN(C(=O)c2ccc(-c3cnc(N)c(-c4nc5ncccc5o4)c3)cc2)CC1` [Example 45B.6], the “% Axl tyrosine kinase inhibition” value amounted to 95.9%.

Staying with this assay, now noted: test compound at 1 μM; first value quoted; read-out: % Axl tyrosine kinase inhibition at 1 μM concentration.
With `Nc1ncc(-c2cccc(S(=O)(=O)CCC3CCNCC3)c2)cc1-c1nc2ccccc2o1` [Example 46, 3-(1,3-Benzoxazol-2-yl)-5-[3-[2-(4-piperidyl)ethylsulphonyl]phenyl]pyridin-2-amine], the inhibition at 1 µM was 95.9%.

With `CCNS(=O)(=O)c1cccc(-c2cnc(N)c(-c3nc4ccccc4o3)c2)c1` [Example 48, 3-[6-Amino-5-(1,3-benzoxazol-2-yl)-3-pyridyl]-N-ethyl-benzenesulphonamide], the inhibition at 1 µM is 93.5%.

Staying with this assay, now noted: test compound at 30 μM; read-out: % of Axl tyrosine kinase activity inhibited at a concentration of 30 μM.
Regarding `Nc1ncc(-c2cccc(S(=O)(=O)N3CCOCC3)c2)cc1-c1nc2ccccc2o1` [Example 47, 3-(1,3-Benzoxazol-2-yl)-5-(3-morpholinosulphonylphenyl)pyridin-2-amine], the inhibition at 30 µM turned out to be 99.5%.
